By EC50 is commonly meant the concentration needed to bring the measured effect to its halfway point. By Emax is commonly meant the maximal effect, on the per cent scale that the assay sets.

This note sets out measurements from patent US20240368120A1 (Terns Pharmaceuticals, Inc., priority 2023, published 2024).

This assay has as its target T1, human GLP-1R receptor (Homo sapiens, UniProt P43220).
T1 construct: expressed in transfected cells
Briefly: GLP-1R low expression cell assay (cAMP TR-FRET, CHO-K1_hGLP-1Rlow_clone10 cells). It counts as cell-based. The note with it: for EC50: cAMP TR-FRET, 30 min at 25° C.; for Emax: maximum activation relative to control GLP-1 peptide agonist. Put shortly: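 CHO-K1 cells stably expressing low surface human GLP-1R (clone10), 1,000 cells/well, exposed to 10-point 3-fold compound dilutions for 30 min at 25 °C. cAMP measured by TR-FRET (Eu-cAMP tracer/ULight-anti-cAMP, 15 min). EC50 from Hill fit of duplicate percent activation relative to a parallel GLP-1 control agonist.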
For orientation: TR-FRET usually uses a lanthanide donor and a delayed reading to cut background.

Bounds are passed on as bounds.

T1 sequence (P43220 24-463): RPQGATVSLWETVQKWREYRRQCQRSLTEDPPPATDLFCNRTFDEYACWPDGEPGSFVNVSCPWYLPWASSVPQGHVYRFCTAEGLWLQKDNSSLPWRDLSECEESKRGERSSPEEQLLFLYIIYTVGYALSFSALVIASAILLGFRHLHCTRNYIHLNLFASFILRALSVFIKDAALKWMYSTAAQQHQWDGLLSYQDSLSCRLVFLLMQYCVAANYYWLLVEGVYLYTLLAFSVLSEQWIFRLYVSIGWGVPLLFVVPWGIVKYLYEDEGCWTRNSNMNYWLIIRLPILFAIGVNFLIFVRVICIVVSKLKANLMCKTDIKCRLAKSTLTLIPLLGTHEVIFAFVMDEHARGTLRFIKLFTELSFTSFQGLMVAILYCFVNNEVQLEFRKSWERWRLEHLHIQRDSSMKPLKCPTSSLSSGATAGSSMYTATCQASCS

As for `O=C(O)c1cc(OC(F)F)c2c(c1)nc(CN1CCC(c3cccc(OCc4ccc(Cl)cc4F)n3)CC1)n2CF` [Compound 206, 2-((4-(6-((4-Chloro-2-fluorobenzyl)oxy)pyridin-2-yl)piperidin-1-yl)methyl)-7-(difluoromethoxy)-1-(fluoromethyl)-1H-benzo[d]imidazole-5-carboxylic acid], the EC50 was > 1000 nM and the Emax is < 25%. For `COc1cc(C(=O)O)cc2c1nc(CN1CCC(c3cccc4c3O[C@H](c3ccc(Cl)cc3F)CO4)CC1)n2C` [Compound 267, (R)-2-((4-(3-(4-Chloro-2-fluorophenyl)-2,3-dihydrobenzo[b][1,4]dioxin-5-yl)piperidin-1-yl)methyl)-4-methoxy-1-methyl-1H-benzo[d]imidazole-6-carboxylic acid] the same measures were 100 to 1000 nM and > 85%.

On to `C[C@@H](F)Oc1cc(C(=O)O)cc2c1nc(CN1CCC(c3cccc(OCc4ccc(C#N)cc4F)n3)CC1)n2C` [Compound 312, (R)-2-((4-(6-((4-Cyano-2-fluorobenzyl)oxy)pyridin-2-yl)piperidin-1-yl)methyl)-4-(1-fluoroethoxy)-1-methyl-1H-benzo[d]imidazole-6-carboxylic acid], for which the EC50 was 10 to 100 nM and the maximal effect (Emax) was > 85%. Consider `Cn1c(CN2CCC(c3cccc(OCc4ccccc4F)n3)CC2)nc2c(OC(F)F)cc(C(=O)O)cc21` [Compound 251, 4-(Difluoromethoxy)-2-((4-(6-((2-fluorobenzyl)oxy)pyridin-2-yl)piperidin-1-yl)methyl)-1-methyl-1H-benzo[d]imidazole-6-carboxylic acid], for which the EC50 was in the range of 100 to 1000 nM.

Regarding `Cn1c(CN2CCC(c3cccc(OCc4ccc(Cl)cc4F)n3)CC2)nc2c(OCC#N)cc(C(=O)O)cc21` [Compound 202], the EC50 was 10 to 100 nM and the Emax was > 85%. The corresponding values for `COc1cc(C(=O)O)cc2c1nc([C@H](C)N1CCC(c3cccc(OCc4ccc(C#N)cc4F)n3)CC1)n2C[C@@H]1CCO1` [Compound 95, 2-((S)-1-(4-(6-((4-Cyano-2-fluorobenzyl)oxy)pyridin-2-yl)piperidin-1-yl)ethyl)-4-methoxy-1-(((S)-oxetan-2-yl)methyl)-1H-benzo[d]imidazole-6-carboxylic acid] are < 10 nM and > 85%. For `Cn1c(CN2CCC(c3cccc4c3OC(c3ccc(Cl)cc3F)C=C4)CC2)nc2c(OC(F)F)cc(C(=O)O)cc21` (single isomer, unassigned) [Compound 175] the same measures were < 10 nM and > 85%. For `[2H]C([2H])(C)Oc1cc(C(=O)O)cc2c1nc(CN1CCC(c3cccc(OC([2H])([2H])c4ccc(Cl)cc4F)n3)CC1)n2C` [Compound 286, 2-((4-(6-((4-Chloro-2-fluorophenyl)methoxy-d2)pyridin-2-yl)piperidin-1-yl)methyl)-4-(ethoxy-1,1-d2)-1-methyl-1H-benzo[d]imidazole-6-carboxylic acid] the same measures were < 10 nM and > 85%. `Cn1c(N(C)[C@H]2CC[C@@H](c3cccc(OCc4ccc(C#N)cc4F)n3)CC2)nc2c(OC(F)F)cc(C(=O)O)cc21` [Compound 142, 2-(((1s,4s)-4-(6-((4-Cyano-2-fluorobenzyl)oxy)pyridin-2-yl)cyclohexyl)(methyl)amino)-4-(difluoromethoxy)-1-methyl-1H-benzo[d]imidazole-6-carboxylic acid]: the EC50 was > 1000 nM and the Emax was > 85%.

Consider `CCOc1cc(C(=O)O)cc2c1nc(CN1CCC(c3cccc4c3OC[C@@H](c3ccc(C#N)cc3F)O4)CC1)n2C` [Compound 276, (R)-2-((4-(2-(4-Cyano-2-fluorophenyl)-2,3-dihydrobenzo[b][1,4]dioxin-5-yl)piperidin-1-yl)methyl)-4-ethoxy-1-methyl-1H-benzo[d]imidazole-6-carboxylic acid], for which the EC50 was 10 to 100 nM and the Emax was > 85%.

Regarding `COc1cc(C(=O)O)c(F)c2c1nc(CN1CCC(c3ccc(F)c(OCc4ccc(Cl)cc4F)c3)CC1)n2C` [Compound 340, 2-((4-(3-((4-Chloro-2-fluorobenzyl)oxy)-4-fluorophenyl)piperidin-1-yl)methyl)-7-fluoro-4-methoxy-1-methyl-1H-benzo[d]imidazole-6-carboxylic acid], the EC50 lay in the range of 10 to 100 nM and the Emax was > 85%.

On to `Cn1c(CN2CCC(c3cccc(OCc4ccc(C5CC5)cc4F)n3)CC2)nc2c(OC(F)F)cc(C(=O)O)cc21` [Compound 365, 2-((4-(6-((4-Cyclopropyl-2-fluorobenzyl)oxy)pyridin-2-yl)piperidin-1-yl)methyl)-4-(difluoromethoxy)-1-methyl-1H-benzo[d]imidazole-6-carboxylic acid], for which the EC50 fell in the range of 10 to 100 nM and the Emax was > 85%. With `N#Cc1ccc(COc2cccc(C3CCN(Cc4nc5c(O)c(C(=O)O)ccc5n4C[C@@H]4CCO4)CC3)n2)c(F)c1` [Compound 376, (S)-2-((4-(6-((4-Cyano-2-fluorobenzyl)oxy)pyridin-2-yl)piperidin-1-yl)methyl)-4-hydroxy-1-(oxetan-2-ylmethyl)-1H-benzo[d]imidazole-5-carboxylic acid], the half-maximal effective concentration (EC50) is < 10 nM and the maximal response (Emax) was > 85%. With `Cn1c(CN2CCC(c3cc(OCc4ccc(Cl)cc4F)ccc3F)CC2)nc2c(OC(F)F)cc(C(=O)O)cc21` [Compound 167, 2-((4-(5-((4-Chloro-2-fluorobenzyl)oxy)-2-fluorophenyl)piperidin-1-yl)methyl)-4-(difluoromethoxy)-1-methyl-1H-benzo[d]imidazole-6-carboxylic acid], the EC50 is > 1000 nM and the Emax lay in the range of 25 to 50%.

For the compound `COc1cc(F)ccc1COc1cccc(C2CCN(Cc3nc4c(OC(F)F)cc(C(=O)O)cc4n3C)CC2)n1` [Compound 231, 4-(Difluoromethoxy)-2-((4-(6-((4-fluoro-2-methoxybenzyl)oxy)pyridin-2-yl)piperidin-1-yl)methyl)-1-methyl-1H-benzo[d]imidazole-6-carboxylic acid], the EC50 was 10 to 100 nM and the Emax was > 85%. For `O=C(O)c1ccc2nc(CN3CCC(c4cccc(OCc5ccc(Cl)cc5F)n4)CC3)[nH]c2c1OC(F)F` [Compound 210, 2-((4-(6-((4-Chloro-2-fluorobenzyl)oxy)pyridin-2-yl)piperidin-1-yl)methyl)-7-(difluoromethoxy)-1H-benzo[d]imidazole-6-carboxylic acid] the same measures were > 1000 nM and 25 to 50%. `Cn1c(CN2CCC(c3cccc(OCc4ccc(Cl)cc4F)n3)CC2)nc2c(OCC(F)F)cc(C(=O)O)cc21` [Compound 169, 2-((4-(6-((4-Chloro-2-fluorobenzyl)oxy)pyridin-2-yl)piperidin-1-yl)methyl)-4-(2,2-difluoroethoxy)-1-methyl-1H-benzo[d]imidazole-6-carboxylic acid]: the EC50 was < 10 nM and the Emax was > 85%. `COc1cc(-c2cc(=O)[nH]o2)cc2c1nc(CN1CCC(c3cccc(OCc4ccc(Cl)cc4F)n3)CC1)n2C[C@@H]1CCO1` [Compound 382, (S)-5-(2-((4-(6-((4-Chloro-2-fluorobenzyl)oxy)pyridin-2-yl)piperidin-1-yl)methyl)-4-methoxy-1-(oxetan-2-ylmethyl)-1H-benzo[d]imidazol-6-yl) isoxazol-3 (2H)-one]: the EC50 was < 10 nM and the Emax lay within 50 to 85%. With `COCCOc1cc(C(=O)O)cc2c1nc(CN1CCC(c3cccc4c3O[C@](C)(c3ccc(Cl)cn3)O4)CC1)n2Cc1cncs1` [Compound 3, (R)-2-((4-(2-(5-Chloropyridin-2-yl)-2-methylbenzo[d][1,3]dioxol-4-yl)piperidin-1-yl)methyl)-4-(2-methoxyethoxy)-1-(thiazol-5-ylmethyl)-1H-benzo[d]imidazole-6-carboxylic acid], the 50% effective concentration (EC50) is 100 to 1000 nM and the Emax is > 85%. Take `N#Cc1ccc(COc2cccc(C3CCN(Cc4nc5ccc(C(=O)O)c6c5n4CCO6)CC3)n2)c(F)c1` [Compound 104, 2-((4-(6-((4-Cyano-2-fluorobenzyl)oxy)pyridin-2-yl)piperidin-1-yl)methyl)-3,4-dihydro-5-oxa-1,2a-diazaacenaphthylene-6-carboxylic acid]: the EC50 was 100 to 1000 nM and the maximal effect (Emax) is > 85%. Turning to `CCOc1cc(C(=O)O)cc2c1nc(CN1CCC(c3cccc(OCc4ccc(Cl)cc4F)n3)CC1)n2C` [Compound 358, 2-((4-(6-((4-Chloro-2-fluorobenzyl)oxy)pyridin-2-yl)piperidin-1-yl)methyl)-4-ethoxy-1-methyl-1H-benzo[d]imidazole-6-carboxylic acid], the Emax is > 85%.

With `CC(C)Oc1cc(C(=O)O)cc2c1nc(CN1CCC(c3cccc4c3O[C@@](C)(c3ccc(Cl)cn3)O4)CC1)n2C` [Compound 84, (S)-2-((4-(2-(5-Chloropyridin-2-yl)-2-methylbenzo[d][1,3]dioxol-4-yl)piperidin-1-yl)methyl)-4-isopropoxy-1-methyl-1H-benzo[d]imidazole-6-carboxylic acid], the EC50 was < 10 nM and the Emax was > 85%.

`Cn1c(CN2CCC(c3cccc(OCc4ccc(Cl)cc4F)n3)CC2)nc2c(OC(F)F)cc(NCC(=O)O)cc21` [Compound 255, (2-((4-(6-((4-chloro-2-fluorobenzyl)oxy)pyridin-2-yl)piperidin-1-yl)methyl)-4-(difluoromethoxy)-1-methyl-1H-benzo[d]imidazol-6-yl)glycine] gave an EC50 of 100 to 1000 nM and an Emax of 50 to 85%. As to `Cn1c(CN2CCC(c3cccc(OCc4ccc(Cl)cc4F)n3)CC2)nc2c(OC(F)F)cc(-c3n[nH]c(=O)o3)cc21` [Compound 234, 5-(2-((4-(6-((4-Chloro-2-fluorobenzyl)oxy)pyridin-2-yl)piperidin-1-yl)methyl)-4-(difluoromethoxy)-1-methyl-1H-benzo[d]imidazol-6-yl)-1,3,4-oxadiazol-2 (3H)-one], the EC50 is > 1000 nM and the Emax is < 25%.
